Earlier results on 15 molecules are cited in article PMC12359172, “Cell and tissue reprogramming: Unlocking a new era in medical drug discovery” (Pharmacological Reviews, 2025).

On the set-up of data set [1]: method as in PMID 10066283, PMID 9704384. The note with it: ref [843],[844].
Data set [2] relates to SMA iPSC-derived motor neurons. Also on record: method as in PMID 19098894. Particulars: ref [391].
For data set [3], the system named is human dermal fibroblasts / primary human cardiac fibroblasts. Particulars: for effect on cardiac fibroblast reprogramming: alongside MEF2C and TBX5 (MT), chemical screen of 2000 compounds, ref [472]; for reprogramming efficiency: HDF with GATA4, MEF2C, TBX5, MYOCD, NKX2-5, miR-1 and miR-133a plus small molecules, ref [468].
Data set [4] concerns skin fibroblasts from patients with ALS, HFFs, FAD fibroblasts. Particulars: human induced motor neuron model, chemical screen; ref [508].
In data set [5] the test system is Müller glia (MG). The note with it: NMDA-induced injury, intraperitoneal injection as printed; ref [333].
The subject of data set [6] is YAP. More on the design: method as in PMID 33888614. The note with it: ref [139].
Data set [7] concerns iPSC-derived cardiac organoid. More on the design: method as in PMID 32284552. Particulars: ref [442].
Data set [8] relates to AMD iPSC-derived RPE cells. Also on record: method as in PMID 35056119, PMID 33918210. The note with it: ref [431],[432].
Details of data set [9]: method as in PMID 32392694, PMID 27490705. Particulars: ref [392],[393].
For data set [10], the system named is iPSC-derived cardiomyocytes (KCNQ1/TRPM4 mutation). The note with it: ref [413].

As to `O=c1[nH]c(=O)n([C@H]2C[C@H](O)[C@@H](CO)O2)cc1Br` [BrdU, bromodeoxyuridine], the developmental toxicity result in [1] is “dose-dependent genetic and neurologic developmental defects”.
Turning to `NC[C@H]1O[C@H](O[C@H]2[C@H](O)[C@@H](O[C@H]3O[C@H](CO)[C@@H](O)[C@H](N)[C@H]3O)[C@H](N)C[C@@H]2N)[C@H](N)C[C@@H]1O` [tobramycin], the drug screening outcome in [2] is reported as “potential treatments”.
For `CCS(=O)(=O)N1CC(CC#N)(n2cc(-c3ncnc4[nH]ccc34)cn2)C1` [Baricitinib], the “effect on cardiac fibroblast reprogramming” value in data set [3] was “significantly improved reprogramming efficiency and promoted spontaneous contractile activity”.
Take `O=C1Cc2c([nH]c3ccc(Br)cc23)-c2ccccc2N1` [Kenpaullone]: the “rescue of ALS-specific disease characteristics” value in data set [4] was “rescuing ALS-specific disease characteristics, including restoring electrophysiological activity and the ability to form NMJs”.
`COCCOc1ccc(-c2cn(-c3ccccc3)c3nc[nH]c(=O)c23)cc1` [DMX-5804]: the “effect on Müller glia” value in data set [5] was “promoted MG proliferation and conversion to a retinal progenitor cell–like state”.
For the molecule verteporfin, in data set [6], the fibroblast-mediated regeneration result was “enhance fibroblast-mediated regeneration, improving mechanical strength and reducing scarring”.
As to `COc1cccc2c1C(=O)c1c(O)c3c(c(O)c1C2=O)C[C@@](O)(C(=O)CO)C[C@@H]3O[C@H]1C[C@H](N)[C@H](O)[C@H](C)O1` [doxorubicin], in data set [7], the “cardiotoxicity detected by model” value was “cardiotoxic effects”.
`CC(C)(C)c1nc2c3cc[nH]c(=O)c3c3cc(F)ccc3c2[nH]1` [JAK1 inhibitor (EMD4Biosciences; 420099)]: in data set [3], the reprogramming efficiency is recorded as less than 25%.
In the case of `NC(=O)c1ncn([C@@H]2O[C@H](COP(=O)(O)O)[C@@H](O)[C@H]2O)c1N` [5-aminoimidazole-4-carboxamide ribonucleotide], the “effect on mitochondrial function” value in [8] is “improved mitochondrial function”.
On to `CN(C)C(=N)N=C(N)N` [Metformin], for which, in [8], the “effect on mitochondrial function” value is reported as “improved mitochondrial function”.
Turning to `CCCC(CCC)C(=O)O` [VPA, valproic acid], the drug screening outcome in [2] is reported as “potential treatments”. In addition, the clinical trial outcome in data set [9] is reported as “failed in clinical trials”.
Turning to `Cc1c[nH]c(-c2cnc(NCCNc3ccc(C#N)cn3)nc2-c2ccc(Cl)cc2Cl)n1` [CHIR99021], the reprogramming efficiency in data set [3] is less than 25%.
With `NC(=O)c1ccc(-c2nc(-c3ccc4c(c3)OCO4)c(-c3ccccn3)[nH]2)cc1` [SB431542], the “effect on cardiac fibroblast reprogramming” value in [3] is “significantly improved reprogramming efficiency and promoted spontaneous contractile activity”.
Take `Oc1nc(-c2ccc(C(F)(F)F)cc2)nc2c1CSCC2` [Xav939]: in data set [3] (MST cocktail (MYOCD, SMAD6, TBX20) combined with FGF2 and XAV939, primary human cardiac fibroblasts, ref [536]), the iCM function result is “spontaneous contractions and calcium transients”.
As for `COc1ccc(CCN(C)CCCC(C#N)(c2ccc(OC)c(OC)c2)C(C)C)cc1OC` (stereo not shown) [verapamil], the drug screening outcome in data set [10] is “potential treatment”.
